Data on 60 compounds can be found in PMC12040169 (PLOS Biology, 2025).

A short description of this data set: in vitro. The note with it: human, hela cells, % viability.
`CC(C)(CO)CNc1cncc(-c2ccc(O)cc2)n1` [CBK065386]: the viability at 28.5 h, 10 µM turned out to be 113%. Turning to `COc1ccc(CNc2cncc(-c3cncc(OC)c3)n2)cc1` [CBK065388], the viability at 28.5 h, 10 µM was 98.5%.

As to `COc1cc(-c2cncc(N3CCCC3CO)n2)cc(OC)c1OC` (stereo not drawn) [CBK065389], the viability at 28.5 h, 10 µM came out at 104%.

In the case of `CN(C)CCNC(=O)c1cccc(-c2cncc(N3CCN(c4ccncc4)CC3)n2)c1` [CBK065391], the viability at 28.5 h, 10 µM is 100%.

`CCCC/C=C/c1cncc(N2CCCC2CO)n1` (stereo not drawn) [CBK065402]: the viability at 28.5 h, 10 µM is 91.8%. `CC(=O)Nc1cccc(-c2cncc(NC3CCC(O)CC3)n2)c1` (stereo not drawn) [CBK065404]: the viability at 28.5 h, 10 µM was found to be 88.6%. Then `CN(C)CCN1CCN(c2cncc(-c3cccnc3)n2)CC1` [CBK065416], with 93.2%.

As for `COc1cc(CNc2cncc(-c3cccc(C(=O)NCCO)c3)n2)cc(OC)c1OC` [CBK065421], the viability at 28.5 h, 10 µM is 98.5%. On to `CC(C)[C@@H](CO)Nc1cncc(-c2cccc(CO)c2)n1` [CBK065427], for which the viability at 28.5 h, 10 µM came to 95.2%.

Turning to `OCC1CCCN1c1cncc(-c2cccnc2)n1` (stereo not drawn) [CBK065439], the viability at 28.5 h, 10 µM came out at 100%. For the compound `CCCNc1cncc(-c2cccc(F)c2)n1` [CBK065441], the viability at 28.5 h, 10 µM turned out to be 97.3%. Regarding `OCc1cccc(-c2cncc(NC3CCC(O)CC3)n2)c1` (stereo not drawn) [CBK065448], the viability at 28.5 h, 10 µM was found to be 102%.

Take `OC1CCC(Nc2cncc(-c3cccc(F)c3)n2)CC1` (stereo not drawn) [CBK065449]: the viability at 28.5 h, 10 µM is 97.8%. Then `OC1CCC(Nc2cncc(-c3ccc4ccccc4c3)n2)CC1` (stereo not drawn) [CBK065463], with 91.7%; and `CC(C)[C@@H](CO)Nc1cncc(-c2cccnc2)n1` [CBK065467], with 98.5%.

Consider `CCCC/C=C/c1cncc(N[C@@H](C)c2ccccc2)n1` [CBK065472], for which the viability at 28.5 h, 10 µM worked out at 109%.

`COc1cc(CNc2cncc(-c3ccc(N)cc3)n2)cc(OC)c1OC` [CBK065483]: the viability at 28.5 h, 10 µM was 96.5%.

As for `CC(CCCC(C)(C)O)Nc1cncc(-c2cccc(C(=O)O)c2)n1` (stereo not drawn) [CBK065489], the viability at 28.5 h, 10 µM was found to be 103%. For `CC(C)[C@H](CO)Nc1cncc(-c2cccc3ccccc23)n1` [CBK065501], the viability at 28.5 h, 10 µM is 85.9%. Regarding `COc1ccc(C(C)C)cc1-c1cncc(N[C@@H](C)c2ccccc2)n1` [CBK065504], the viability at 28.5 h, 10 µM worked out at 115%. For `c1ccc(CCNc2cncc(-c3cccs3)n2)nc1` [CBK065510], the viability at 28.5 h, 10 µM amounted to 98.2%. Regarding `O=C(c1ccco1)N1CCN(c2cncc(-c3cccs3)n2)CC1` [CBK065518], the viability at 28.5 h, 10 µM came to 114%.

In the case of `C[C@H](Nc1cncc(-c2ccccc2CO)n1)c1ccccc1` [CBK065520], the viability at 28.5 h, 10 µM is 116%. As to `CC(CCCC(C)(C)O)Nc1cncc(-c2ccccc2CO)n1` (stereo not drawn) [CBK065529], the viability at 28.5 h, 10 µM was 96.3%. Then `CCC(CO)Nc1cncc(-c2cccs2)n1` (stereo not drawn) [CBK065534], with 110%. Then `COc1ccc(C(C)C)cc1-c1cncc(N[C@H](C)c2ccccc2)n1` [CBK065535], with 105%; and `COc1cncc(-c2cncc(N[C@H](C)c3ccccc3)n2)c1` [CBK065537], with 98.9%; and `CN1CCCN(c2cncc(-c3cccs3)n2)CC1` [CBK065542], with 101%. `CC(C)[C@H](CO)Nc1cncc(-c2cccc(N(C)C)c2)n1` [CBK065547]: the viability at 28.5 h, 10 µM was found to be 81.9%.

For `CN(C)c1cccc(-c2cncc(NCc3ccco3)n2)c1` [CBK065555], the viability at 28.5 h, 10 µM was 106%. On to `CC(C)[C@@H](CO)Nc1cncc(-c2cccc3ccccc23)n1` [CBK065566], for which the viability at 28.5 h, 10 µM turned out to be 98.4%. As for `CCC(CO)Nc1cncc(-c2cccc(/C=C/C(=O)O)c2)n1` (stereo not drawn) [CBK065569], the viability at 28.5 h, 10 µM was 114%.

Turning to `c1coc(CNc2cncc(-c3cccc4ccccc34)n2)c1` [CBK065573], the viability at 28.5 h, 10 µM was 115%. Then `c1csc(-c2cncc(NCc3ccncc3)n2)c1` [CBK065583], with 94.6%; and `CC(=O)Nc1ccc(-c2cncc(NCCCO)n2)cc1` [CBK065598], with 103%. For `CC(C)(CO)CNc1cncc(-c2cccs2)n1` [CBK065599] the value was 88.3%; for `c1csc(-c2cncc(NCCCN3CCOCC3)n2)c1` [CBK065623], 102%; for `c1coc(CNc2cncc(-c3cccs3)n2)c1` [CBK065630], 96.6%.

On to `CN(C)c1cccc(-c2cncc(NCCCN3CCOCC3)n2)c1` [CBK065635], for which the viability at 28.5 h, 10 µM came to 94.8%. With `C[C@@H](Nc1cncc(-c2cccc3ccccc23)n1)c1ccccc1` [CBK065646], the viability at 28.5 h, 10 µM amounted to 93.4%. For the compound `CN(C)CCN(C)c1cncc(-c2ccc(F)cc2F)n1` [CBK065652], the viability at 28.5 h, 10 µM came to 90.9%. Consider `C[C@H](Nc1cncc(-c2cccc3ccccc23)n1)c1ccccc1` [CBK065654], for which the viability at 28.5 h, 10 µM is 93.6%.

As for `N#Cc1ccccc1N1CCN(c2cncc(-c3cccs3)n2)CC1` [CBK065656], the viability at 28.5 h, 10 µM amounted to 104%. For `CCNc1cncc(-c2ccc(N)cc2)n1` [CBK065658] the value was 112%; for `COc1cc(Nc2cncc(-c3cccs3)n2)cc(OC)c1OC` [CBK065663], 80.4%.

With `CN(C)CCN(C)c1cncc(-c2cccs2)n1` [CBK065679], the viability at 28.5 h, 10 µM turned out to be 108%.

With `Nc1ccc(-c2cncc(N3CCN(c4ccncc4)CC3)n2)cc1` [CBK065681], the viability at 28.5 h, 10 µM came out at 97%. `C[C@H](Nc1cncc(-c2ccc(F)cc2F)n1)c1ccccc1` [CBK065684]: the viability at 28.5 h, 10 µM is 98.9%. Then `Fc1ccc(-c2cncc(Nc3ccc4c(c3)OC(F)(F)C(F)(F)O4)n2)c(F)c1` [CBK065692], with 103%; and `C[C@H](Nc1cncc(-c2cccc(N(C)C)c2)n1)c1ccccc1` [CBK065699], with 96.8%. As to `CCN(CC)CCN1CCN(c2cncc(-c3cccs3)n2)CC1` [CBK065703], the viability at 28.5 h, 10 µM is 95.5%. On to `N#Cc1ccccc1N1CCN(c2cncc(-c3ccc(F)cc3F)n2)CC1` [CBK065708], for which the viability at 28.5 h, 10 µM amounted to 102%. For `C[C@H](Nc1cncc(-c2cccs2)n1)c1ccccc1` [CBK065719] the value was 93.5%. In the case of `CCOc1ccc(-c2cncc(N[C@@H](C)c3ccccc3)n2)cc1` [CBK065720], the viability at 28.5 h, 10 µM came out at 106%. In the case of `CN(C)CCN(C)c1cncc(-c2ccc(Cl)cc2)n1` [CBK065724], the viability at 28.5 h, 10 µM came out at 93%. `CC(=O)Nc1ccc(-c2cncc(Nc3ccc4c(c3)OC(F)(F)C(F)(F)O4)n2)cc1` [CBK065726]: the viability at 28.5 h, 10 µM was found to be 98.7%. In the case of `FC1(F)Oc2ccc(Nc3cncc(-c4cccs4)n3)cc2OC1(F)F` [CBK065727], the viability at 28.5 h, 10 µM came to 110%.

On to `CCOc1ccc(-c2cncc(Nc3ccc4c(c3)OC(F)(F)C(F)(F)O4)n2)cc1` [CBK065728], for which the viability at 28.5 h, 10 µM was determined as 96.8%.

On to `CN(C)c1cccc(-c2cncc(Nc3ccc(Cl)cc3)n2)c1` [CBK065738], for which the viability at 28.5 h, 10 µM was determined as 98.8%. Consider `OCCN(CCO)c1cncc(-c2ccc(Cl)cc2)n1` [CBK065748], for which the viability at 28.5 h, 10 µM was 95.2%.
